Among the data in patent US7115635B2, “Benzylpiperidine compound” (Mitsubishi Pharma Corporation, priority 2001, dated 2006) are IC50 and Cmax values, retold here.

Counter-ions that a name gives are not always drawn.

The target of one data set is human eosinophil. Nature of the data set: Binding inhibitory activity between chemokine ([125I]-eotaxin) and human eosinophil. The following applies: 50 pmol/L [125I]-eotaxin, human eosinophil 2x10^5, 25 C, 1 hr; read-out: IC50 (concentration necessary for decreasing the binding between [125I]-eotaxin and human eosinophil by 50%). As to the method: Human eosinophil was separated from the anticoagulation treated peripheral blood of a healthy subject by CD16 negative selection method (e.g., J. Immunol. Methods, vol., 145, pp. 105–110, 1991). The separated eosinophil (2×10^5), 50 pmol/L [^125I]-eotaxin (2000 Ci/mmoL, manufactured by AmershamPharmacia Biotech) and a test compound were mixed in 0.1 mL of a binding buffer (50 mmol/L HEPES, 1 mmol/L CaCl2, 5 mmol/L MgCl2, 0.5% bovine serum albumin (BSA), 0.1% sodium azide, pH 7.6), and the mixture was incubated at 25° C. for 1 hr in a multiscreen plate (manufactured by Millipore Corporation). After the completion of the incubation, the reaction mixture in the multiscreen plate was filtered in vacuo and washed with 0.6 mL of a cold washing buffer (50 mmol/L HEPES, 1 mmol/L CaCl2, 5 mmol/L MgCl2, 0.5 mol/L NaCl, 0.1% sodium azide, pH 7.6), and the radioactivity on the filter was measured. […] The IC50 values (concentration of a test compound necessary for decreasing the binding between [^125 I]-eotaxin and human eosinophil by 50%) of some of the compounds of the present invention were as follows.

Data set [1] in a line: Measurement of blood (plasma) concentration. In kind it is in vivo. The following applies: female rat, LC/MS, administered orally and intravenously (route and dose for Cmax not stated). The procedure:
The compound of the present invention was administered orally and intravenously to female rat, and the plasma concentration of the compound was measured. That is, the test compound was weighed, dissolved or suspended in a medium, diluted to the objective concentration, and orally and intravenously administered. After the administration, the blood was drawn with time from the cervical vein with a heparin treated syringe. The blood was centrifuged, the plasma was separated, and the plasma was preserved at −20° C. until analysis. The concentration of the compound in plasma was measured using LC/MS. The results are shown in the following [Table 3].

The next data set deals with T1, CCR3 (Homo sapiens, UniProt P51677).
T1 construct: Eosinophil separated from the peripheral blood of a healthy subject; endogenous in cells; host or cells: eosinophils from peripheral blood of a healthy subject
T1 sequence (P51677 1-355): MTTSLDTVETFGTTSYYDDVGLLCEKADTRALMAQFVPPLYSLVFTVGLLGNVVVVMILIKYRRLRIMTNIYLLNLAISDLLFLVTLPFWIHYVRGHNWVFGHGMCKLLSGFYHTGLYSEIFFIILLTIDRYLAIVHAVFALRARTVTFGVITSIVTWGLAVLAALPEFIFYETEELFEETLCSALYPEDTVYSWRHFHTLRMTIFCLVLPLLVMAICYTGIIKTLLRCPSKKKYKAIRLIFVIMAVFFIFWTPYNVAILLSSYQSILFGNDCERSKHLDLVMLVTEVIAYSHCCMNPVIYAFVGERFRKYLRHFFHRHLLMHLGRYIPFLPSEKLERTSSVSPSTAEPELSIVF
The data set is described as follows: Effect on intracellular calcium concentration in eosinophil on stimulation with CCL11. In kind it is cell-based. The following applies: human peripheral blood eosinophil, agonist CCL11 0.3 nmol/L, compound 5 min before stimulation, Fura-2 AM; read-out: IC50 of the increase in the intracellular calcium concentration. As to the method:
The effect of the compound of the present invention on intracellular calcium in eosinophil in the peripheral blood of a healthy subject on stimulation with CCL11 was elavuated by the following method.
Eosinophil separated from the peripheral blood of a healthy subject was suspended in a buffer for measurement (10 mmol/L HEPES, and 0.5% bovine serum albumin-containing hanks' balanced salt solution), and the suspension was incubated in the presence of 5 μmol/L of Fura-2 AM (manufactured by Dojindo Laboratories) at 37° C. for 45 min. After the completion of incubation, the cells were washed three times with the buffer for measurement to remove Fura-2 AM not-incorporated into the cells.
The cell suspension was adjusted to the final concentration of 1×10^6 cells/mL with the buffer for measurement and preserved in a dark place until measurement. The intracellular calcium was measured using FDSS6000 manufactured by Hamamatsu Photonics K.K. That is, a cell suspension (0.1 mL) loaded with Fura-2 AM was placed in a 96 well plate for measurement, and the plate was set on FDSS6000. The fluorescence intensities due to excitation lights at wavelengths 340 nm and 380 nm were measured. The ratio of the fluorescence intensities corresponding to the excitation lights at these two wavelengths was determined to calculate the intracellular calcium concentration. […]
(In general: Calcium assays in cells follow changes in intracellular calcium, usually with a dye or a luminescent sensor.)

Take `N=C(N)Nc1nc(-c2ccc(CCCCC(=O)NC3CCN(Cc4ccc(Cl)c(Cl)c4)CC3)cc2)cs1` [Example 1, N-[1-(3,4-dichlorobenzyl)piperidin-4-yl]-5-[4-(2-guanidinothiazol-4-yl)phenyl]valeramide]: the IC50 on human eosinophil is 6 nM.

In turn, `Nc1cccc(-c2csc(SCC(=O)NC3CCN(Cc4ccc(Cl)c(Cl)c4)CC3)n2)c1` [Example 35, [4-(3-aminophenyl)thiazol-2-ylthio]-N-[1-(3,4-dichlorobenzyl)piperidin-4-yl]acetamide] registered a Cmax in data set [1] of 3120 ng/mL.

On to `N=C(N)Nc1nc(-c2ccc(OCCCC(=O)NC3CCN(Cc4ccc(Cl)c(Cl)c4)CC3)cc2)cs1` [Example 9, N-[1-(3,4-dichlorobenzyl)piperidin-4-yl]-4-[4-(2-guanidinothiazol-4-yl)phenyloxy]butylamide ½ fumarate ¼ hydrate], for which the IC50 on human eosinophil was found to be 4 nM; at CCR3 it was 6 nM. Regarding `Nc1ccc(-c2csc(SCC(=O)NC3CCN(Cc4ccc(Cl)c(Cl)c4)CC3)n2)cc1` [Example 6, [4-(4-aminophenyl)thiazol-2-ylthio]-N-[1-(3,4-dichlorobenzyl)piperidin-4-yl]acetamide], the IC50 on human eosinophil came to 11 nM.

As usually defined, the Cmax is the maximum level reached in the sampled fluid or tissue.
